Test results: patent publication US4175081A, “5-Substituted thiadiazole ureas” (priority 1977, dated 1979)

Tests used:
Barnyard grass (BG) [1] = test: Pre-emergence herbicide test; format: in vivo; conditions: Echinochloa crus-galli, 336 h, 8 lb/acre, two weeks after treatment
In short: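 Greenhouse pre-emergence spray test: pots seeded one day before treatment received compound at rates of 8 or 4 lb/acre (38 gal/acre). Visual injury/control scores for Echinochloa crus-galli taken at two weeks, with watering by sub-irrigation only.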

Turnip (TP) [2] = test: Post-emergence herbicide test; format: in vivo, Brassica sp.; conditions: Brassica rapa, post-emergence, 336 h; 8 lb/acre; two weeks after treatment
In short: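 A greenhouse post-emergence herbicide test on turnip. Seeds were sown on the surface of potting soil in 3' plastic pots, lightly covered with screened soil and watered from below. Planting was timed so seedlings had 1 or 2 true leaves above the cotyledons at spraying, done in a hood with a fixed nozzle. Control or injury was scored by eye after two weeks.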

Crabgrass (CG) [3] = test: Pre-emergence herbicide test; format: in vivo, Digitaria sanquinalis; conditions: Digitaria sanguinalis, pre-emergence, 336 h; 8 lb/acre; two weeks after treatment
In short: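 Crabgrass (Digitaria sanquinalis) was surface seeded in 3' plastic pots of potting soil, covered with screened soil, and watered by sub-irrigation in greenhouse trays. Pots were seeded one day before spraying in a hood with a moving belt and fixed nozzle. Plants stayed in the greenhouse on sub-irrigation, and pre-emergence control was rated visually two weeks after treatment.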

Turnip (TP) [4] = test: Pre-emergence herbicide test; format: in vivo, Brassica sp.; conditions: Brassica rapa, pre-emergence, 336 h; 8 lb/acre; two weeks after treatment
In short: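 In this pre-emergence greenhouse test, turnip was seeded on the surface of potting soil in 3' plastic pots, lightly covered with screened soil, and watered from below. One day later the pots were sprayed in a belt-fed spray hood. Watering continued only by sub-irrigation, and percent control was visually scored two weeks after treatment.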

Amaranth pigweed (PW) [5] = test: Post-emergence herbicide test; format: in vivo, Amaranthus retroflexus; conditions: 336 h, 8 lb/acre, two weeks after treatment
In short: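 Visual injury or control ratings were made two weeks after spraying, with greenhouse watering by sub-irrigation only. Treatment was post-emergence, when pigweed seedlings had 1 or 2 true leaves, at 8 lbs active compound per acre (4 lbs/acre formulations also made) in a 38 gallons-per-acre spray volume.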

Amaranth pigweed (PW) [6] = test: Pre-emergence herbicide test; format: in vivo, Amaranthus retroflexus; conditions: 336 h, 8 lb/acre, two weeks after treatment
In short: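 Visual injury or control ratings were made at two weeks on pre-emergence pots, sub-irrigated in the greenhouse. Seeds were sown a day before a hood spray delivering 8 lbs/acre (or 4 lbs/acre) of compound in 38 gallons per acre.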

Cotton (CT) [7] = test: Pre-emergence herbicide test; format: in vivo, Gossypium hirsutum var. DPL smooth leaf; conditions: Gossypium hirsutum, 336 h, 8 lb/acre, two weeks after treatment
In short: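 Visual injury/control ratings were taken at two weeks post-spray. Pots seeded a day earlier received compound pre-emergence at 8 lbs/acre, or 4 lbs/acre, in a 38 gallon/acre spray volume, and were then held in the greenhouse, watered only from below.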

Bean (BN) [8] = test: Pre-emergence herbicide test; format: in vivo, Phaseolus vulgaris var. Black Valentine; conditions: Phaseolus vulgaris, 336 h, 8 lb/acre, two weeks after treatment
In short: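 Visual injury/control ratings were taken two weeks post-spray on sub-irrigated Phaseolus vulgaris var. Black Valentine. Pots were sown a day before treatment. Pre-emergence spray delivered 8 lbs actual compound per acre (or 4 lbs/acre) at 38 gallons per acre.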

Johnson grass (JG) [9] = test: Post-emergence herbicide test; format: in vivo, Sorgum helepense; conditions: Sorghum halepense, 336 h, 8 lb/acre, two weeks after treatment
In short: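 Visual injury or control scores taken 2 weeks after a post-emergence spray of pot-grown plants. Application was 8 lbs/acre (or 4 lbs/acre) in 38 gal/acre. Plants were held in the greenhouse with sub-irrigation only.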

Corn (CN) [10] = test: Pre-emergence herbicide test; format: in vivo; conditions: Zea mays, 336 h, 8 lb/acre, two weeks after treatment
In short: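 Visual injury/control ratings were made 2 weeks post-spray on corn pots seeded (4 seeds, seed-diameter depth) the day before treatment. Application was a belt-hood spray of 38 gal/acre delivering 8 lbs active per acre, with a 4 lbs/acre rate also formulated. Watering was by sub-irrigation throughout.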

[11] = tested on: Yellow foxtail grass (YF); test: Post-emergence herbicide test; format: in vivo, Setaria glauca; conditions: Setaria, 336 h, 8 lb/acre, two weeks after treatment
Experimental: (§1) Yellow foxtail grass (YF)--Setaria glauca
(§2) All crop and weed species were planted individually in 3' plastic pots containing potting soil. Four seeds each of corn, cotton, and snapbeans were seeded to a depth equal to the diameter of the seed. All other species were surface seeded and sprinkled with screened soil in an amount sufficient to cover the seed. Immediately after planting, all pots were watered by sub-irrigation in greenhouse trays. Pots for the pre-emergence phase were seeded one day before treatment.
Planting dates for the post-emergence phase were varied so that all seedlings would reach the desired stage of development simultaneously. The proper stage of seedling development for treatment in the post-emergence phase is as follows:
(§3) Compounds were tested at rates of application equivalent to 8 lbs. of actual compound per acre in a spray volume of 38 gallons per acre. Spray hood constants required to deliver the above volume are as follows:
(§4) Formulations for spray applications were prepared in 50 ml volumes with the following three components:
(§5) Formulations for the 4 lbs/acre rate were prepared by adjusting the amount of active ingredient accordingly.
(§6) Spray applications were made in a hood containing a removable belt and fixed spray nozzle. For passage through the spray hood, one pot of each specie (pre-emergence phase) was placed on the rear half of the flat. Treatments were removed to the greenhouse after spraying. Watering during the observation period was done only by sub-irrigation.
(§7) Two weeks after treatment, pre- and post-emergence injury or control was visually rated, and the results were as shown in the following tables. Pre-emergence data are provided in TABLE III and post-emergence data are provided in TABLE IV, for compounds having the formula illustrated in TABLE I. Correspondingly, pre-emergence and post-emergence data, respectively, are set forth in TABLES V AND VI, for compounds having the formula illustrated in TABLE II.

Barnyard grass (BG) [12] = test: Post-emergence herbicide test; format: in vivo; conditions: Echinochloa crus-galli, 336 h, 8 lb/acre, two weeks after treatment
In short: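 Greenhouse pot-grown barnyard grass seedlings sprayed post-emergence at 8 lbs active compound per acre (some at 4 lbs/acre) in 38 gallons per acre, then sub-irrigated. Injury or control rated visually two weeks after treatment.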

Cotton (CT) [13] = test: Post-emergence herbicide test; format: in vivo, Gossypium hirsutum var. DPL smooth leaf; conditions: Gossypium hirsutum, post-emergence, 336 h; 8 lb/acre; two weeks after treatment
In short: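 This greenhouse post-emergence test measured how well spray treatments controlled cotton. Seedlings of Gossypium hirsutum var. DPL smooth leaf, with expanded cotyledons and a first true leaf 1' in length, were sprayed with 50 ml formulations in a belt-fed spray hood. They were then returned to the greenhouse and watered only by sub-irrigation. Injury was scored visually as % control after two weeks.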

Crabgrass (CG) [14] = test: Post-emergence herbicide test; format: in vivo, Digitaria sanquinalis; conditions: Digitaria sanguinalis, post-emergence, 336 h; 8 lb/acre; two weeks after treatment
In short: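 Crabgrass (Digitaria sanquinalis) was surface seeded individually in 3' plastic pots of potting soil, covered with screened soil, and watered by sub-irrigation in greenhouse trays. Planting was staggered so seedlings reached the target stage together. Post-emergence sprays were applied in a hood with a removable belt and fixed nozzle, and control was visually rated two weeks after treatment.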

Bean (BN) [15] = test: Post-emergence herbicide test; format: in vivo, Phaseolus vulgaris var. Black Valentine; conditions: Phaseolus vulgaris, post-emergence, 336 h; 8 lb/acre; two weeks after treatment
In short: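 Bean seedlings (Phaseolus vulgaris var. Black Valentine) were grown in potting soil in 3' pots until the primary leaves expanded. They were then sprayed under a hood with a removable belt and fixed nozzle, using 50 ml formulations. Afterward they were returned to the greenhouse and watered only by sub-irrigation. Percent control was judged visually two weeks after treatment.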

Corn (CN) [16] = test: Post-emergence herbicide test; format: in vivo; conditions: Zea mays, 336 h, 8 lb/acre, two weeks after treatment
In short: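 Greenhouse seedlings grown in potting soil and sprayed post-emergence at 8 lbs compound/acre (formulations also made for 4 lbs/acre) in 38 gallons/acre spray volume. Watering by sub-irrigation only. Injury or control rated visually two weeks after treatment.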

Johnson grass (JG) [17] = test: Pre-emergence herbicide test; format: in vivo, Sorgum helepense; conditions: Sorghum halepense, 336 h, 8 lb/acre, two weeks after treatment
In short: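 Visual injury or control rating two weeks post-treatment, after pre-emergence spray of 8 or 4 lbs active per acre (38 gal/acre) onto pots sown the previous day. Greenhouse watering by sub-irrigation only.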

[18] = tested on: Yellow foxtail grass (YF); test: Pre-emergence herbicide test; format: in vivo, Setaria glauca; conditions: Setaria, 336 h, 8 lb/acre, two weeks after treatment
Experimental: as §1, §2, §3, §4, §5, §6, §7

Row | Structure (SMILES) | pest or weed control at 8966.8 g/ha (Barnyard grass (BG) [1]) | pest or weed control at 8966.8 g/ha (Turnip (TP) [2]) | pest or weed control at 8966.8 g/ha (Crabgrass (CG) [3]) | pest or weed control at 8966.8 g/ha (Turnip (TP) [4]) | pest or weed control at 8966.8 g/ha (Amaranth pigweed (PW) [5]) | pest or weed control at 8966.8 g/ha (Amaranth pigweed (PW) [6]) | pest or weed control at 8966.8 g/ha (Cotton (CT) [7]) | pest or weed control at 8966.8 g/ha (Bean (BN) [8]) | pest or weed control at 8966.8 g/ha (Johnson grass (JG) [9]) | pest or weed control at 8966.8 g/ha (Corn (CN) [10]) | pest or weed control at 8966.8 g/ha [11] | pest or weed control at 8966.8 g/ha (Barnyard grass (BG) [12]) | pest or weed control at 8966.8 g/ha (Cotton (CT) [13]) | pest or weed control at 8966.8 g/ha (Crabgrass (CG) [14]) | pest or weed control at 8966.8 g/ha (Bean (BN) [15]) | pest or weed control at 8966.8 g/ha (Corn (CN) [16]) | pest or weed control at 8966.8 g/ha (Johnson grass (JG) [17]) | pest or weed control at 8966.8 g/ha [18]
1 | CNC(=O)Nc1nnc(C)s1 [Example 18] | 20% | 40% | 10% | 50% | 40% | 10% | 30% | 50% | 20% | 30% | 20% | 20% | 50% | 20% | 50% | 20% | 10% | 
2 | CNC(=O)Nc1nnc(-c2ccccc2)s1 [Example 34] | 10% | 40% | 10% | 20% | 20% |  | 40% | 80% | 30% | 10% | 30% | 10% | 50% | 10% | 60% | 50% | 20% | 20%
3 | CNC(=O)Nc1nnc(-c2ccc(Cl)cc2)s1 [Example 71] | 20% | 20% | 0% | 0% | 20% |  | 90% | 50% | 20% | 0% | 30% | 20% | 0% | 20% | 50% | 0% | 0% | 0%
